Eleven compounds from ChEMBL document CHEMBL5634077, “Recent advances in 1,2,3- and 1,2,4-triazole hybrids as antimicrobials and their SAR: A critical review” (2023) can be followed below.

What all share (type): functional
The subject of assay [1] is Candida albicans. The assay is described as follows: Antifungal activity against Candida albicans assessed as diameter of inhibition zone at 50 to 100 ug/ml by disc-diffusion method. The conditions noted are these: dose 50-100 µg/ml. In general terms: In agar diffusion tests the substance spreads into inoculated agar from a disc or well.
Assay [2] has as its system Aspergillus flavus. Nature of the assay: Antifungal activity against Aspergillus flavus assessed as diameter of inhibition zone at 50 to 100 ug/ml by disc-diffusion method. The conditions noted are these: dose 50-100 µg/ml.
The test system of assay [3] is Staphylococcus aureus. The assay is described as follows: Antibacterial activity against Staphylococcus aureus assessed as reduction in bacterial growth incubated for 24 hrs by broth microdilution method.
Assay [4] concerns Proteus vulgaris. Nature of the assay: Antibacterial activity against Proteus vulgaris NCIM-2027 by CLSI based microdilution assay. In general terms: Broth dilution looks for growth in wells or tubes with falling amounts of substance.
The subject of assay [5] is Escherichia coli. Nature of the assay: Antibacterial activity against Escherichia coli NCIM-2065 by CLSI based microdilution assay.
Assay [6] concerns Staphylococcus aureus. The assay is described as follows: Antibacterial activity against Staphylococcus aureus NCIM-2079 by CLSI based microdilution assay.
Assay [7] has as its system Bacillus subtilis. Nature of the assay: Antibacterial activity against Bacillus subtilis NCIM-2063 by CLSI based microdilution assay.
In assay [8] the test system is Bacillus cereus. The assay is described as follows: Antibacterial activity against Bacillus cereus NCIM-2156 by CLSI based microdilution assay.
In assay [9] the test system is Escherichia coli. The assay is described as follows: Antibacterial activity against Escherichia coli assessed as reduction in bacterial growth by broth microdilution method.
For assay [10], the system named is Escherichia coli. Nature of the assay: Antibacterial activity against Escherichia coli assessed as reduction in bacterial growth.
Assay [11] deals with Bacillus subtilis. The assay is described as follows: Antibacterial activity against Bacillus subtilis assessed as reduction in bacterial growth.
Assay [12] relates to Proteus vulgaris. Nature of the assay: Antibacterial activity against Proteus vulgaris NCIM 2027 assessed as reduction in bacterial growth incubated for 18 to 24 hrs by broth microdilution method. Conditions: time 18-24 hrs.
For assay [13], the system named is Escherichia coli. The assay is described as follows: Antibacterial activity against Escherichia coli NCIM 2065 assessed as reduction in bacterial growth incubated for 18 to 24 hrs by broth microdilution method. Conditions: time 18-24 hrs.
Another assay has as its system Pseudomonas aeruginosa. Nature of the assay: Antibacterial activity against Pseudomonas aeruginosa NCIM 2036 assessed as reduction in bacterial growth incubated for 18 to 24 hrs by broth microdilution method. The conditions noted are these: time 18-24 hrs.
Assay [14] deals with Bacillus subtilis. Nature of the assay: Antibacterial activity against Bacillus subtilis NCIM 2063 assessed as reduction in bacterial growth incubated for 18 to 24 hrs by broth microdilution method. The conditions noted are these: time 18-24 hrs.
Assay [15] deals with Bacillus cereus. Nature of the assay: Antibacterial activity against Bacillus cereus NCIM 2156 assessed as reduction in bacterial growth incubated for 18 to 24 hrs by broth microdilution method. Conditions: time 18-24 hrs.
Assay [16] deals with Staphylococcus aureus. Nature of the assay: Antibacterial activity against Staphylococcus aureus NCIM 2079 assessed as reduction in bacterial growth incubated for 18 to 24 hrs by broth microdilution method. The conditions noted are these: time 18-24 hrs.
The subject of another assay is Proteus mirabilis. Nature of the assay: Antibacterial activity against Proteus mirabilis NCIM 2241 assessed as reduction in bacterial growth incubated for 18 to 24 hrs by broth microdilution method. The conditions noted are these: time 18-24 hrs.
Assay [17] concerns Proteus vulgaris. Nature of the assay: Antibacterial activity against Proteus vulgaris assessed as reduction in bacterial growth.
Another assay has as its system Micrococcus luteus. Nature of the assay: Antibacterial activity against Micrococcus luteus assessed as reduction in microbial growth.
Assay [18] concerns Aspergillus flavus. The assay is described as follows: Antifungal activity against Aspergillus flavus assessed as inhibition of fungal growth.
Assay [19] has as its system Candida albicans. Nature of the assay: Antifungal activity against Candida albicans assessed as inhibition of fungal growth.
The test system of assay [20] is Escherichia coli. The assay is described as follows: Antibacterial activity against Escherichia coli assessed as inhibition of bacterial growth.
The next assay has as its system Klebsiella pneumoniae. Nature of the assay: Antibacterial activity against Klebsiella pneumoniae assessed as inhibition of bacterial growth.
Assay [21] relates to Staphylococcus aureus. Nature of the assay: Antibacterial activity against Staphylococcus aureus assessed as inhibition of bacterial growth.
Another assay deals with Rhizopus. Nature of the assay: Antifungal activity against Rhizopus assessed as inhibition of fungal growth.
For another assay, the system named is Nakaseomyces glabratus. Nature of the assay: Antifungal activity against Candida glabrata assessed as reduction in fungal growth by CLSI based micro-dilution asssay.
Assay [22] deals with Candida albicans. The assay is described as follows: Antifungal activity against Candida albicans IFRC 194 assessed as reduction in fungal growth by CLSI based micro-dilution asssay.
The subject of the next assay is Candida parapsilosis. Nature of the assay: Antifungal activity against Candida parapsilosis IFRC 1269 assessed as reduction in fungal growth by CLSI based micro-dilution asssay. The conditions noted are these: Lodderomyces parapsilosis.
A further assay relates to Pichia kudriavzevii. Nature of the assay: Antifungal activity against Candida krusei IFRC 1012 assessed as reduction in fungal growth by CLSI based micro-dilution asssay.
The subject of another assay is Candida tropicalis. The assay is described as follows: Antifungal activity against Candida tropicalis IFRC 1057 assessed as reduction in fungal growth by CLSI based micro-dilution asssay.

In brackets after ≈: the same amount, converted by molar mass.

Turning to `CCOC(=O)C1=C(C)Oc2nc(C)n(Cc3cn(-c4cccc(C(F)(F)F)c4)nn3)c(=O)c2C1c1ccc([N+](=O)[O-])cc1` (stereo not given), the “diameter of the inhibition zone (DIZ)” value in the assay with Candida albicans [1] and in the assay with Aspergillus flavus [2] was 10.5 mm in each case.

With `CCOC(=O)C1=C(C)Oc2nc(C)n(Cc3cn(-c4cccc(F)c4)nn3)c(=O)c2C1c1ccc([N+](=O)[O-])cc1` (stereo not given), the “diameter of the inhibition zone (DIZ)” value in the assay on Candida albicans [1] and in the assay on Aspergillus flavus [2] was 12 mm in each case.

Turning to `Cc1ccc2c(c1)c(=O)c1ccccc1n2Cc1cn(-c2ccccc2C)nn1`, the MIC in the assay on Staphylococcus aureus [3] is 12.3 µg/mL (≈ 32.4 µM).

As to `Cc1ccccc1-n1cc(Cn2c3ccccc3c(=O)c3ccccc32)nn1`, the MIC with Staphylococcus aureus [3] came to 10.1 µg/mL (≈ 27.6 µM).

Turning to `O=C(CNN1C(=O)CSC1c1ccc(-c2ccc(F)cc2)cc1)NN1C(c2ccncc2)=NNC1S` (stereo not given), the minimum inhibitory concentration (MIC) with Proteus vulgaris [4], against Escherichia coli [5], in the assay with Staphylococcus aureus [6], with Bacillus subtilis [7] and against Bacillus cereus [8] was 3.12 µg/mL (≈ 5.97 µM) in each case.

In the case of `Cc1ccc(NC(=O)Cn2cc(Cn3cc(CC(NC(=O)C(C)c4ccc(CC(C)C)cc4)C(=O)NC(Cc4ccccc4)C(N)=O)c4ccccc43)nn2)c(C)c1` (stereo not given), in the assay on Escherichia coli [9], the MIC came to 25 µg/mL (≈ 32 µM).

For `CC(c1ccc(Br)cc1)n1cc(Cn2cc(/C=C/C(=O)c3ccc(Br)cc3)c3ccccc32)nn1` (stereo not given), the MIC in the assay with Escherichia coli [10] turned out to be 10.9 µM (≈ 6.43 µg/mL); with Bacillus subtilis [11], 10.9 µM.

As for `Nn1c(NCCCNc2ccnc3cc(Cl)ccc23)nn(CN2CCNCC2)c1=S`, the minimal inhibitory concentration (MIC) in the assay on Proteus vulgaris [12] was found to be 12.5 µg/mL (≈ 27.9 µM); in the assay on Escherichia coli [13], 6.25 µg/mL (≈ 14 µM); in the assay on Pseudomonas aeruginosa, 25 µg/mL (≈ 55.8 µM); with Bacillus subtilis [14], 12.5 µg/mL (≈ 27.9 µM); with Bacillus cereus [15], 3.12 µg/mL (≈ 6.98 µM); in the assay on Staphylococcus aureus [16], 3.12 µg/mL (≈ 6.98 µM). The MIC in the assay with Proteus mirabilis came to 12.5 µg/mL (≈ 27.9 µM).

`COc1ccc(-c2cc(-c3nnn(-c4ccccc4)c3C)no2)cc1`: the MIC with Proteus vulgaris [17] stood at 1.56 µg/mL (≈ 4.69 µM); in the assay on Bacillus subtilis [11], 1.56 µg/mL; in the assay with Micrococcus luteus, 1.56 µg/mL.

As for `COc1cc(N2CCC(c3n[nH]c(=S)n3-c3cccc(C(F)(F)F)c3)CC2)ccc1Cl`, the MIC with Aspergillus flavus [18] was 4 µg/mL (≈ 8.53 µM); with Candida albicans [19], 8 µg/mL (≈ 17.1 µM); in the assay on Escherichia coli [20], 4 µg/mL (≈ 8.53 µM); in the assay with Klebsiella pneumoniae, 8 µg/mL (≈ 17.1 µM); in the assay with Staphylococcus aureus [21] it was 4 µg/mL (≈ 8.53 µM); with Rhizopus, 8 µg/mL (≈ 17.1 µM).

For `OC(CSC(=S)N1CCN(Cc2ccc(Cl)cc2)CC1)(Cn1cncn1)c1ccc(F)cc1F` (stereo not given), the MIC in the assay with Nakaseomyces glabratus, in the assay with Candida albicans [22], in the assay on Candida parapsilosis, in the assay on Pichia kudriavzevii and with Candida tropicalis was 0.063 µg/mL (≈ 0.12 µM) each time.

In general, MIC refers to the lowest concentration that inhibits growth of the organism.
